{
  "source": "patent EP1075256B1",
  "about": "“ARYLHYDROCARBON RECEPTOR LIGAND ANTAGONISTS” (priority 1998, dated 1999)",
  "key": {"récepteur AhR": {"target": "T1, récepteur AhR (Oryctolagus cuniculus, UniProt O02747)", "T1 construct": "On a utilisé un cytosol de foie de lapin pour ces études de compétition; from tissue; host or cells: rabbit liver cytosol", "T1 sequence (O02747 1-847)": "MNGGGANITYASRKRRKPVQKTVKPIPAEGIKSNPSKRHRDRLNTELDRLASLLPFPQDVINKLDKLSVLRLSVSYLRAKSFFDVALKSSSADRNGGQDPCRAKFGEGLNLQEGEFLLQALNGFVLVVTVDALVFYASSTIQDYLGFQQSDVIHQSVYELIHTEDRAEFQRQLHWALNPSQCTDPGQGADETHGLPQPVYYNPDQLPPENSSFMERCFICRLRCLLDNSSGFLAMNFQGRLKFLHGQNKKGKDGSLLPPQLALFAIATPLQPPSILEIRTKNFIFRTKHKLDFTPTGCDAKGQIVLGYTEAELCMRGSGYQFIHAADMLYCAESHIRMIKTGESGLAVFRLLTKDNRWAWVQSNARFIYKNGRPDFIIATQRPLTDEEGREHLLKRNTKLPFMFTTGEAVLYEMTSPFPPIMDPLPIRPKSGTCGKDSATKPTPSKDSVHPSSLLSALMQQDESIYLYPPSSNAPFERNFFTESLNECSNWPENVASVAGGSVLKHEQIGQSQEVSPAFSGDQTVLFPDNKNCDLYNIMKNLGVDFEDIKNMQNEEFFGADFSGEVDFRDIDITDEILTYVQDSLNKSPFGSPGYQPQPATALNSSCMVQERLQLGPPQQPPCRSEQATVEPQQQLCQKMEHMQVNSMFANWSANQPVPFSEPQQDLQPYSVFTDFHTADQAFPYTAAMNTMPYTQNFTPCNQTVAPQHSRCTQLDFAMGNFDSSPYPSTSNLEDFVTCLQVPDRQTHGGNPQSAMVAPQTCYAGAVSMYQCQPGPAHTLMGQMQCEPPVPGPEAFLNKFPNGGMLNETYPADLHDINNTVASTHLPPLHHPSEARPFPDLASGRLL", "assay": "Competition with tritiated dioxin for binding to the AhR receptor in rabbit liver cytosol", "design": "species or system lapin", "conditions": "for Kd: displacement of labelled dioxin, read-out: Kd apparent (converted)"}, "[1]": {"test_system": "promoteur de la séquence répétée (LTR) de VIH-1", "assay": "HIV-1 LTR promoter CAT construct (-452/+77) transfected in T-47D cells", "format": "cell-based", "conditions": "dioxine 10^-9 M", "text": "On a transfecté les cellules T-47D avec une construction CAT contenant ce promoteur (-452/+77)."}, "CYP1A1": {"test_system": "CYP1A1", "assay": "Induction of Cyp1A1 protein by dioxin in T-47D cells (Western blot)", "format": "cell-based", "conditions": "for effets agonistes / antagonistes: 10^-5M", "experimental": "Les cellules sont collectées et lavées dans le PBS, puis lysées par fusion-congélation répétée en conditions isotoniques. 75 µg de protéines sont analysées par électrophorèse en gel de polyacrylamide en conditions dénaturantes. Le gel est transféré sur une membrane de nylon. La membrane est saturée avec 5 % de lait écrémé et incubée avec un anticorps polyclonal de lapin (Daiichi Pure Chemicals Co, Japan) contre Cyp1A1. Les immuncomplexes sont détectés par chimioluminescence avec le kit Renaissance (DuPont). La figure 2 correspond à la photo du Western blot. La flèche montre la bande spécifique de Cyp1A1, les astérisques signalent des bandes non-spécifiques."}, "[2]": {"test_system": "élément de réponse à la dioxine", "assay": "CAT reporter gene under control of a dioxin response element (DRE), stably transfected T-47D cells", "format": "cell-based", "conditions": "figure 1A, 10^-6 M de Resvératrol", "text": "Les inventeurs ont entrepris d'identifier de nouveaux ligands du récepteur AhR. Pour ce faire, ils ont transfecté de façon stable une lignée de cellules de cancer du sein, T-47D, avec un gène rapporteur (la trans-acétylase du chloramphénicol, ou CAT) placé sous le contrôle d'un élément de réponse à la dioxine ou DRE. La lignée T-47D est connue pour contenir un taux élevé de récepteur AhR (170 femtomoles/mg protéines).\nOn transfecte de manière stable la lignée T-47D de cellules de cancer du sein avec un gène rapporteur, la trans-acétylase du chloramphénicol, CAT en abrégé, placé sous le contrôle d'un élément de réponse à la dioxine.\nOn constate que l'inhibition observée est dose-dépendante."}, "[3]": {"test_system": "NAD(P)H quinone réductase", "assay": "NAD(P)H quinone reductase (NQOR) activity in T-47D cells", "format": "cell-based", "conditions": "10^-6 M, dioxine 10^-9 M, 72 h", "text": "L'activité NQOR correspondante exprimée en nanomoles de cytochrome c réduit, par mg de protéines, par min, est donnée sur la figure 5."}, "cyp 1A1": {"test_system": "cyp 1A1", "assay": "In vivo induction of cyp 1A1 in rats by BaP/DMBA (immunoblot of lung and kidney)", "design": "species or system rats Sprague-Dawley", "conditions": "equal concentration of substances (1 mg/kg BaP/DMBA plus 1 mg/kg resvératrol)", "experimental": "Des rats Sprague-Dawley femelle ont été traités par une combinaison de Benzol [a]pyrène et de DMBA (diméthylbenzanthracène), deux ligands AhR présents dans la fumée de cigarette. Des expériences préliminaires ont montré que cyp 1A1 était induit à partir de 1 mg/kg des deux ligands administrés ensemble. […] Les animaux ont été sacrifiés et les organes prélevés. Des extraits cellulaires totaux ont été préparés et analysés par immunoblot pour détecter l'expression de cyp 1A1 dans ces tissus."}, "[4]": {"test_system": "élément de réponse à l'estradiol (ERE) du gène de la vitellogénine", "assay": "Transient CAT reporter under estradiol response element (ERE) in T-47D cells", "format": "cell-based", "text": "(§1) On a transfecté de façon transitoire les cellules T-47D avec différentes constructions CAT sous contrôle de l'élément de réponse à l'estradiol (ERE) du gène de la vitellogénine ou celui, plus faible, du gène du récepteur de la progestérone, ainsi que des éléments de réponse à la progestérone (PRE) et aux androgènes (ARE) du virus murin MMTV et d'un élément de réponse à la vitamine D (VDRE) synthétique."}, "[5]": {"test_system": "éléments de réponse aux androgènes (ARE)", "assay": "Transient CAT reporter under androgen response element (ARE) in T-47D cells", "format": "cell-based", "text": "as §1"}, "[6]": {"test_system": "éléments de réponse à la progestérone (PRE)", "assay": "Transient CAT reporter under progesterone response element (PRE) in T-47D cells", "format": "cell-based", "text": "as §1"}, "[7]": {"test_system": "élément de réponse à la vitamine D (VDRE)", "assay": "Transient CAT reporter under vitamin D response element (VDRE) in T-47D cells", "format": "cell-based", "text": "as §1"}},
  "data": [
    {"smiles": "Clc1cc2c(cc1Cl)Oc1cc(Cl)c(Cl)cc1O2", "note": "[TCDD, 2,3,7,8-tétrachlorodibenzo (p)dioxine, reference compound]", "values": [
      {"measurement": "Kd", "setting": "récepteur AhR", "result": 3, "unit": "nM"},
      {"measurement": "fold induction at 0.001 µM", "setting": "[1]; Homo sapiens, T47D, T-47D, read-out: induction du promoteur de VIH (facteur)", "result": 3}
    ]},
    {"smiles": "Oc1ccc(/C=C/c2cc(O)cc(O)c2)cc1", "note": "[Resvératrol, trans-resvératrol]", "values": [
      {"measurement": "effets agonistes / antagonistes", "setting": "CYP1A1", "result": "pur antagoniste"},
      {"measurement": "inhibition at 1 µM", "setting": "CYP1A1; Homo sapiens, T47D, 48 h, read-out: inhibition de l'induction de la protéine CYP1A1", "result": "~60", "unit": "%"},
      {"measurement": "excès nécessaire pour observer l'inhibition ex vivo", "setting": "CYP1A1; ex vivo", "result": 5000, "unit": "fois"},
      {"measurement": "effet inhibiteur compared with α-naphthoflavone", "setting": "CYP1A1; induction of CYP1A1 by TCDD, T-47D", "result": "légérement inférieur"},
      {"measurement": "effet sur l'induction de CAT par TCDD", "setting": "[2]", "result": "effet inhibiteur"},
      {"measurement": "répression de l'induction indirecte des enzymes de phase II (NAD(P)H quinone réductase) provoquée par la dioxine", "setting": "[3]", "result": "ne répriment l'induction indirecte"},
      {"measurement": "suppression de l'induction de cyp 1A1 in vivo", "setting": "cyp 1A1", "result": "totalement supprimée"},
      {"measurement": "effet estrogénique sur l'ERE, fraction of the effect of estradiol", "setting": "[4]; T-47D, CAT", "result": "1/500.000"},
      {"measurement": "effet estrogénique, fraction of the effect of 10^-10 M estradiol", "setting": "[4]; from 10^-5 M Resvératrol", "result": "1/5"},
      {"measurement": "affinité compared with indole-3-carbinol", "setting": "récepteur AhR", "result": "affinité plus forte"},
      {"measurement": "effet sur ARE", "setting": "[5]", "result": "aucun effet"},
      {"measurement": "suppression de l'induction du promoteur de VIH par la dioxine", "setting": "[1]; Resvératrol 10^-6 M", "result": "totalement supprimée"},
      {"measurement": "effet sur PRE", "setting": "[6]", "result": "aucun effet"},
      {"measurement": "effet sur VDRE", "setting": "[7]", "result": "aucun effet"}
    ]},
    {"smiles": "O=c1cc(-c2ccccc2)oc2c1ccc1ccccc12", "note": "[α-NF, alpha-7,8-benzoflavone, reference compound]", "values": [
      {"measurement": "effets agonistes / antagonistes", "setting": "CYP1A1", "result": "effets agonistes autant qu'antagonistes"},
      {"measurement": "répression de l'induction indirecte des enzymes de phase II (NAD(P)H quinone réductase) provoquée par la dioxine", "setting": "[3]", "result": "ne répriment l'induction indirecte"},
      {"measurement": "Kd", "setting": "récepteur AhR", "result": 3, "unit": "nM"}
    ]}
  ]
}
